Laboratory results taken from the NIST ThermoML archive (doi:10.1016/j.jct.2016.03.026).

Experiment: xn = mol fraction of the nth substance listed
Settings: 273.15 K, Fluid (supercritical or subcritical phases), x1 = 0.97; for mass density: Vibrating tube method; for speed of sound: Frequency=5 MHz, Pulse-echo method

O=C=O [carbon dioxide] + CO
Settings | mass density [kg/m3] | speed of sound [m/s]
14050 kPa | 992.7 | –
14075 kPa | 992.85 | –
14100 kPa | 992.93 | –
14125 kPa | 993.06 | –
14150 kPa | 993.17 | –
14175 kPa | 993.26 | –
14200 kPa | 993.38 | –
14225 kPa | 993.5 | –
14250 kPa | 993.58 | –
14275 kPa | 993.7 | –
14300 kPa | 993.82 | –
14325 kPa | 993.9 | –
14350 kPa | 994 | –
14375 kPa | 994.12 | –
14400 kPa | 994.23 | –
14425 kPa | 994.35 | –
14450 kPa | 994.42 | –
14475 kPa | 994.54 | –
14500 kPa | 994.65 | –
14525 kPa | 994.75 | –
14550 kPa | 994.85 | –
14575 kPa | 994.96 | –
14600 kPa | 995.07 | –
14625 kPa | 995.18 | –
14650 kPa | 995.29 | –
14675 kPa | 995.37 | –
14700 kPa | 995.5 | –
14725 kPa | 995.62 | –
14750 kPa | 995.7 | –
14775 kPa | 995.81 | –
14800 kPa | 995.94 | –
14825 kPa | 996.02 | –
14850 kPa | 996.12 | –
14875 kPa | 996.27 | –
14900 kPa | 996.34 | 688.9
14925 kPa | 996.43 | –
14950 kPa | 996.51 | –
14975 kPa | 996.65 | –
15000 kPa | 996.75 | –
15025 kPa | 996.84 | –
15050 kPa | 996.94 | –
15075 kPa | 997.08 | –
15100 kPa | 997.16 | –
15125 kPa | 997.24 | –
15150 kPa | 997.37 | –
15175 kPa | 997.49 | –
15200 kPa | 997.57 | –
15225 kPa | 997.66 | –
15250 kPa | 997.8 | –
15275 kPa | 997.89 | –
15300 kPa | 997.98 | –
15325 kPa | 998.14 | –
15350 kPa | 998.19 | –
15375 kPa | 998.3 | –
15400 kPa | 998.38 | –
15425 kPa | 998.5 | –
15450 kPa | 998.63 | –
15475 kPa | 998.71 | –
15500 kPa | 998.79 | –
15525 kPa | 998.89 | –
15550 kPa | 999.03 | –
15575 kPa | 999.11 | –
15600 kPa | 999.22 | –
15625 kPa | 999.34 | –
15650 kPa | 999.41 | –
15675 kPa | 999.52 | –
15700 kPa | 999.63 | –
15725 kPa | 999.76 | –
15750 kPa | 999.85 | –
15775 kPa | 999.93 | –
15800 kPa | 1000.03 | –
15825 kPa | 1000.09 | –
15850 kPa | 1000.25 | –
15875 kPa | 1000.33 | –
15900 kPa | 1000.44 | –
15925 kPa | 1000.5 | –
15950 kPa | 1000.59 | –
15975 kPa | 1000.74 | –
16000 kPa | 1000.82 | –
16025 kPa | 1000.92 | –
16050 kPa | 1001.03 | –
16075 kPa | 1001.14 | –
16100 kPa | 1001.23 | –
16125 kPa | 1001.34 | –
16150 kPa | 1001.44 | –
16175 kPa | 1001.55 | –
16200 kPa | 1001.64 | –
16225 kPa | 1001.73 | –
16250 kPa | 1001.84 | –
16275 kPa | 1001.95 | –
16300 kPa | 1002.05 | –
16325 kPa | 1002.16 | –
16350 kPa | 1002.26 | –
16375 kPa | 1002.35 | –
16400 kPa | 1002.44 | –
16425 kPa | 1002.55 | –
16450 kPa | 1002.64 | –
16475 kPa | 1002.73 | –
16500 kPa | 1002.82 | –
16525 kPa | 1002.92 | –
16550 kPa | 1003.07 | –
16575 kPa | 1003.15 | –
16600 kPa | 1003.23 | –
16625 kPa | 1003.31 | –
16650 kPa | 1003.43 | –
16675 kPa | 1003.55 | –
16700 kPa | 1003.63 | –
16725 kPa | 1003.75 | –
16750 kPa | 1003.86 | –
16775 kPa | 1003.93 | –
16800 kPa | 1004.01 | –
16825 kPa | 1004.09 | –
16850 kPa | 1004.25 | –
16875 kPa | 1004.31 | –
16900 kPa | 1004.4 | –
16925 kPa | 1004.53 | –
16950 kPa | 1004.6 | –
16975 kPa | 1004.73 | –
17000 kPa | 1004.82 | –
17025 kPa | 1004.89 | –
17050 kPa | 1005.04 | –
17075 kPa | 1005.11 | –
17100 kPa | 1005.21 | –
17125 kPa | 1005.3 | –
17150 kPa | 1005.42 | –
17175 kPa | 1005.49 | –
17200 kPa | 1005.63 | –
17225 kPa | 1005.7 | –
17250 kPa | 1005.78 | –
17275 kPa | 1005.9 | –
17300 kPa | 1006.03 | –
17325 kPa | 1006.1 | –
17350 kPa | 1006.19 | –
17375 kPa | 1006.3 | –
17400 kPa | 1006.36 | –
17425 kPa | 1006.5 | –
17450 kPa | 1006.55 | –
17475 kPa | 1006.68 | –
17500 kPa | 1006.76 | –
17525 kPa | 1006.86 | –
17550 kPa | 1006.92 | –
17575 kPa | 1007.06 | –
17600 kPa | 1007.11 | –
17625 kPa | 1007.24 | –
17650 kPa | 1007.37 | –
17675 kPa | 1007.42 | –
17700 kPa | 1007.56 | –
17725 kPa | 1007.61 | –
17750 kPa | 1007.74 | –
17775 kPa | 1007.82 | –
17800 kPa | 1007.92 | –
17825 kPa | 1008.05 | –
17850 kPa | 1008.1 | –
17875 kPa | 1008.22 | –
17900 kPa | 1008.28 | –
17925 kPa | 1008.41 | –
17950 kPa | 1008.47 | –
17975 kPa | 1008.58 | –
18000 kPa | 1008.63 | –
18025 kPa | 1008.76 | –
18050 kPa | 1008.81 | –
18075 kPa | 1008.93 | –
18100 kPa | 1009.05 | –
18125 kPa | 1009.17 | –
18150 kPa | 1009.21 | –
18175 kPa | 1009.33 | –
18200 kPa | 1009.44 | –
18225 kPa | 1009.49 | –
18250 kPa | 1009.61 | –
18275 kPa | 1009.68 | –
18300 kPa | 1009.76 | –
18325 kPa | 1009.88 | –
18350 kPa | 1009.93 | –
18375 kPa | 1010.03 | –
18400 kPa | 1010.15 | –
18425 kPa | 1010.26 | –
18450 kPa | 1010.33 | –
18475 kPa | 1010.41 | –
18500 kPa | 1010.52 | –
18525 kPa | 1010.58 | –
18550 kPa | 1010.7 | –
18575 kPa | 1010.82 | –
18600 kPa | 1010.88 | –
18625 kPa | 1010.99 | –
18650 kPa | 1011.1 | –
18675 kPa | 1011.15 | –
18700 kPa | 1011.25 | –
18725 kPa | 1011.35 | –
18750 kPa | 1011.46 | –
18775 kPa | 1011.49 | –
18800 kPa | 1011.59 | –
18825 kPa | 1011.7 | –
18850 kPa | 1011.81 | –
18875 kPa | 1011.88 | –
18900 kPa | 1011.94 | –
18925 kPa | 1012.05 | –
18950 kPa | 1012.15 | –
18975 kPa | 1012.26 | –
19000 kPa | 1012.37 | –
19025 kPa | 1012.45 | –
19050 kPa | 1012.49 | –
19075 kPa | 1012.6 | –
19100 kPa | 1012.7 | –
19125 kPa | 1012.77 | –
19150 kPa | 1012.83 | –
19175 kPa | 1012.93 | –
19200 kPa | 1013.04 | –
19225 kPa | 1013.15 | –
19250 kPa | 1013.25 | –
19275 kPa | 1013.27 | –
19300 kPa | 1013.37 | –
19325 kPa | 1013.48 | –
19350 kPa | 1013.58 | –
19375 kPa | 1013.61 | –
19400 kPa | 1013.72 | –
19425 kPa | 1013.82 | –
19450 kPa | 1013.91 | –
19475 kPa | 1013.95 | –
19500 kPa | 1014.05 | –
19525 kPa | 1014.15 | –
19550 kPa | 1014.24 | –
19575 kPa | 1014.34 | –
19600 kPa | 1014.44 | –
19625 kPa | 1014.47 | –
19650 kPa | 1014.56 | –
19675 kPa | 1014.66 | –
19700 kPa | 1014.76 | –
19725 kPa | 1014.86 | –
19750 kPa | 1014.88 | –
19775 kPa | 1014.98 | –
19800 kPa | 1015.08 | –
19825 kPa | 1015.19 | –
19850 kPa | 1015.29 | –
19875 kPa | 1015.31 | –
19900 kPa | 1015.41 | –
19910 kPa | – | 735.5
19925 kPa | 1015.5 | –
19950 kPa | 1015.6 | –
19975 kPa | 1015.7 | –
20000 kPa | 1015.77 | –
24940 kPa | – | 776.2
29980 kPa | – | 812.6
35030 kPa | – | 845.6
